Data: patent US20130045991A1, “NEUROPROTECTIVE MODULATION OF NMDA RECEPTOR SUBTYPE ACTIVITIES” (THE UNIVERSITY OF BRITISH COLUMBIA, priority 2005, published 2013)

Key:
[1] = system: AMPA subtype glutamate receptor; assay: mEPSC recording, fast AMPA receptor-mediated component; assay type: cell-based, rat; conditions: -60 mV, zero added Mg2+
[2] = system: NR1C and NR2B receptors over NR1C+NR2A receptors; conditions: cited from earlier work
permanent focal ischemia = conditions: in vivo; cited from earlier work
cortical neurons [3] = assay: Staurosporine (STS)-induced neuronal apoptosis; assay type: cell-based, rat; conditions: NMDA 200 μM, 5 min, Ro 25-6981 0.5 μM present
Text: In alternative aspects of the invention, we have achieved specific activation of NR2A-containing receptors using two different strategies. First, we examined the effect of selective activation of extrasynaptic NR2A-containing receptor activation on neuronal appopotosis induced by staurosporine (STS), a potent apoptosis inducer (Budd et al., 2000). […] The NMDA-induced neuronal protection was indeed mediated by NR2A-containing receptors as it was prevented by co-application of NVP-AAM077 (p<0.001 compared with STS alone).
Dissociated cultures of cortical neurons were prepared from 18-day Sprague-Dawley rat embryos as described previously (Mielke et al., 2005). To obtain mixed cortical cultures enriched with neurons, uridine (10 μM) and 5-Fluor-2′-deoxyuridine (10 μM) were added to the culture medium at 3 DIV and maintained for 48 h, to inhibit non-neuronal cell proliferation, before the cultures were shifted back to the normal culture medium. Mature neurons (11-14 DIV) were used for experiments. To induce neuronal apoptosis, cortical cultures were stimulated with NMDA (50 μM) and glycine (10 μM) for 20 min, or STS (100 nM) for 1 h in Mg2+-free extracellular solution (ECS) containing (mM): 25 HEPES acid, 140 NaCl, 33 glucose, 5.4 KCl and 1.3 CaCl2, with pH 7.35 and osmolarity 320-330 mOsm. […]
To visualize injured neurons, Hoechst-33342 (10 μg/ml) was added to the culture medium 20 h after treatments and incubated for 45 min at 37 °C. Images were taken with a Leica DMIRE2 fluorescence microscope. Quantitative assessment of neuronal apoptosis was performed 20 h following treatments using a Cell Death Detection ELISAPLUS Kit (Roche Applied Science). Absorbance readings were determined using a spectrophotometric microplate reader. […] Data are expressed as the difference in apoptosis relative to control and are expressed as a percentage.

[4] = system: middle cerebral artery occlusion (MCAo); assay: MCAo focal ischemic stroke model, post-ischemic treatment; assay type: in vivo, rat
Text: In some clinical settings, it is desirable to implement therapy after the onset of neuronal injury, such as stroke or other ischemic events.
Transient cerebral focal ischemia was produced by middle cerebral artery occlusion (MCAo) as described (Aarts et al., 2002; Bederson et al., 1986; Longa et al., 1989). Briefly, male Sprague-Dawley rats (Charles River Laboratories) weighing ˜300 g were anesthetized and MCAo was achieved by introducing a 3-0 monofilament suture into the MCA via the internal carotid artery. Body temperature was maintained at 37.0±0.5° C., and blood pressure and blood gases were monitored during the experiments. Animals were sacrificed 24 h following MCAo onset. Cerebral infarction was analyzed using brain sections stained with hematoxylin and eosin (H & E) or 2,3,5-triphenyltetrazolium chloride (TTC). 10 min before the animals were sacrificed, two tests, the postural reflex test to examine upper body posture (Bederson et al., 1986) and the forelimb placing test to examine sensorimotor integration in forelimb placing responses to visual, tactile, and proprioceptive stimuli (De Ryck et al., 1989), were performed to grade neurological function on a scale of 0 to 12 (0=normal, 12=worst). In the pretreatment study, a single bolus of drugs (NR2A-specific antagonist NVP-AAM077 (2.4 mg/kg) or NR2B specific antagonist Ro 25-6981 (6 mg/kg) or vehicle (saline)) was infused intravenously 30 min before a 1-h MCAo. For post-treatment experiments, animals were subjected to a 1.5-h MCAo and drug treatments (glycine, 800 mg/kg; NVP-AAM077 and Ro 25-6981 at the same doses as in the pretreatment study) were then given via intraperitoneal injection (i.p.) 3 h after reperfusion (4.5 h after the onset of MCAo).
The activating effect on NR2A-containing receptors was mimicked with the application of the NMDA receptor co-agonist glycine in the presence of an […] NR2B antagonist. Glycine by itself potentiates the function of NMDA receptors that are activated by endogenously released glutamate from presynaptic terminals both in vitro and in vivo (Johnson et al., 1987; Lu et al., 2001; De et al., 2000).

synaptic NMDA receptors = assay: mEPSC recording, NMDA receptor-mediated component; assay type: cell-based, rat
cortical neurons [5] = assay: NMDA-mediated excitotoxicity: neuronal apoptosis in cortical cultures; assay type: cell-based, rat; conditions: 50 μM NMDA plus 10 μM glycine 20 min, assayed 20 h after; APV 50 μM, Ro25-6981 0.5 μM, NVP-AAM077 0.4 μM
Method: (§1) Mature neurons (11-14 DIV) were used for experiments.
(§2) To visualize injured neurons, Hoechst-33342 (10 μg/ml) was added to the culture medium 20 h after treatments and incubated for 45 min at 37 °C. Images were taken with a Leica DMIRE2 fluorescence microscope. Quantitative assessment of neuronal apoptosis was performed 20 h following treatments using a Cell Death Detection […] Kit (Roche Applied Science). Absorbance readings were determined using a spectrophotometric microplate reader. Data analyses were carried out according to the manufacturer's instructions. Data are expressed as the difference in apoptosis relative to control and are expressed as a percentage.

cortical neurons [6] = assay: Glycine pretreatment before NMDA-induced neuronal apoptosis; assay type: cell-based, rat
Method: as §1, §2

[7] = system: acute ischaemic stroke in the carotid artery territory; conditions: sublingual 1.0-2.0 g/day started within 6 h after onset; cited from earlier work

O=C1N=c2cc([N+](=O)[O-])c([N+](=O)[O-])cc2=NC1=O [DNQX, 6,7-dinitroquinoxaline-2,3-dione]
effect on fast AMPA receptor-mediated component of mEPSCs [1]: completely blocked

Cc1ccc(CC2(O)CCN(CCOc3ccc(O)cc3)CC2)cc1 [Ro 63-1908, 1-[2-(4-hydroxy-phenoxy)-ethyl]-4-(4-methyl-benzyl)-piperidin-4-ol]
selectivity for the NR1C and NR2B receptors over NR1C+NR2A receptors [2]: 20,000 fold | neuroprotective effect against cortical damage (permanent focal ischemia): dose-related neuroprotective effect

CN[C@H](CC(=O)O)C(=O)O [NMDA, N-methyl-D-aspartate]
effect on STS-induced apoptosis (cortical neurons [3]; STS 100 nM, 1 h): significantly reduced STS-induced apoptosis | neuronal apoptosis on its own (cortical neurons [3]; synaptic receptors blocked (MK-801 + bicuculline)): did not increase neuronal apoptosis on its own

C[C@]12N[C@H](Cc3ccccc31)c1ccccc12 [MK-801]
effect of co-administration on the glycine effect (infarct volume reduction) ([4]; co-administered with glycine 800 mg/kg 4.5 h after stroke onset): virtually completely abolished | neuroprotection / total infarct volume compared with MCAo alone ([4]; given 3 h after 1.5-h MCAo (4.5 h after stroke onset), MK801 1 mg/Kg, glycine 800 mg/Kg, Ro 25-6981 6 mg/Kg): did not provide any noticeable neuroprotection | blockade of synaptic NMDA receptors (APV-sensitive component of mEPSCs) (synaptic NMDA receptors; MK-801 10 μM co-applied with bicuculline 50 μM, within 10 min): complete blockade

N[C@@H](CCCP(=O)(O)O)C(=O)O [APV]
effect on NMDA-induced neuronal apoptosis/damage (cortical neurons [5]): fully blocked | effect on slow NMDA receptor-mediated component of mEPSCs (synaptic NMDA receptors; -60 mV, zero added Mg2+, APV 50 μM, Ro 25-6981 0.5 μM): fully blocked

NCC(=O)O [glycine, Glycine]
neuroprotection / total infarct volume compared with MCAo alone ([4]; rat, in vivo): remarkable reduction in total infarct volume | effect of pretreatment on NMDA-induced neuronal apoptosis (cortical neurons [6]): significantly reduced NMDA-induced neuronal apoptosis | clinical effects [7]: favourable clinical effects
